According to ChEMBL document CHEMBL4270552, “4-(Phenoxy) and 4-(benzyloxy)benzamides as potent and selective inhibitors of mono-ADP-ribosyltransferase PARP10/ARTD10” (Eur J Med Chem, 2018):

Columns and labels:
[1] = biological target: Protein mono-ADP-ribosyltransferase PARP9 (Homo sapiens) (UniProt Q8IXQ6); further: test concentration or dose not given here
[2] = biological target: T1, Poly [ADP-ribose] polymerase tankyrase-1 (Homo sapiens, UniProt O95271); assay: Inhibition of N-terminal His-tagged human ARTD5 (1030 to 1317 residues) expressed in Escherichia coli Rosetta2 (DE3) using TCEP as substrate after 18 hrs in presence of NAD+
T1 sequence (O95271 whole entry): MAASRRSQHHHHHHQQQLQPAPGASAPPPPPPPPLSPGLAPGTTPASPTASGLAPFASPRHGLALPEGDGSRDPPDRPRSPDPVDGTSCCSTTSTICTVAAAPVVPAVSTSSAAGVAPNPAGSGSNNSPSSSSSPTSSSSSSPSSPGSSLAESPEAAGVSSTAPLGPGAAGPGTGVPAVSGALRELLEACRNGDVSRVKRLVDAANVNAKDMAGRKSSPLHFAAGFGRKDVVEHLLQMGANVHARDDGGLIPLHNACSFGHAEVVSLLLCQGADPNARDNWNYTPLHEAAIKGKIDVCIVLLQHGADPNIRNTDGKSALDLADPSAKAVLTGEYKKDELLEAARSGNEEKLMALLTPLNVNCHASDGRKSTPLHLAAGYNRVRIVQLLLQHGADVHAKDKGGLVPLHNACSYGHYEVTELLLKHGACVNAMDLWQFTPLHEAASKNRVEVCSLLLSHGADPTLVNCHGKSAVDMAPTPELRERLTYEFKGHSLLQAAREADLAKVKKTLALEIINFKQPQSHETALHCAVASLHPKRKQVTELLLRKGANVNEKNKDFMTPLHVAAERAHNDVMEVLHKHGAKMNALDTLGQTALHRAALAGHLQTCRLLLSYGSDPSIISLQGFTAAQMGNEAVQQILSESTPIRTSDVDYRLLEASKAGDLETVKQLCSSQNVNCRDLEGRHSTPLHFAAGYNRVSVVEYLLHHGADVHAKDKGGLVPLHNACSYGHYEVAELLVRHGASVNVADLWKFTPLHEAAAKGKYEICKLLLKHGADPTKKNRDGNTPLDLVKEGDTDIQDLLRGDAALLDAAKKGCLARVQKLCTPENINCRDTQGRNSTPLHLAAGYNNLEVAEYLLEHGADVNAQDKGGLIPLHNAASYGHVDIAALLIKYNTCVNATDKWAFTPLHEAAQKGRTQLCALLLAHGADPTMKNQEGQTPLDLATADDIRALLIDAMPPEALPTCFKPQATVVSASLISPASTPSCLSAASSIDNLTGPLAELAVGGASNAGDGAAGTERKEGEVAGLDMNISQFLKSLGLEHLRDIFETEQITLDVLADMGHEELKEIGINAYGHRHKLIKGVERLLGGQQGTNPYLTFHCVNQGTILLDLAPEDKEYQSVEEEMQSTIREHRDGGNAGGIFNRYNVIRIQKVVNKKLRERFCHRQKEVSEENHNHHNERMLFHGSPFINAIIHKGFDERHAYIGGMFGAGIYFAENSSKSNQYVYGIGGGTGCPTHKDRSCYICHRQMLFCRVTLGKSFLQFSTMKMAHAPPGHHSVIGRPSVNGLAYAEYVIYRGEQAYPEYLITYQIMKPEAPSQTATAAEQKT

[3] = biological target: Poly [ADP-ribose] polymerase 1 (Homo sapiens, UniProt P09874); assay: Inhibition of N-terminal His-tagged human ARTD1 (1 to 1014 residues) expressed in Escherichia coli Rosetta2 (DE3) using activated DNA as substrate after 1.5 hrs in presence of NAD+
Sequence of Poly [ADP-ribose] polymerase 1 (P09874 whole entry, the tested form may be a part): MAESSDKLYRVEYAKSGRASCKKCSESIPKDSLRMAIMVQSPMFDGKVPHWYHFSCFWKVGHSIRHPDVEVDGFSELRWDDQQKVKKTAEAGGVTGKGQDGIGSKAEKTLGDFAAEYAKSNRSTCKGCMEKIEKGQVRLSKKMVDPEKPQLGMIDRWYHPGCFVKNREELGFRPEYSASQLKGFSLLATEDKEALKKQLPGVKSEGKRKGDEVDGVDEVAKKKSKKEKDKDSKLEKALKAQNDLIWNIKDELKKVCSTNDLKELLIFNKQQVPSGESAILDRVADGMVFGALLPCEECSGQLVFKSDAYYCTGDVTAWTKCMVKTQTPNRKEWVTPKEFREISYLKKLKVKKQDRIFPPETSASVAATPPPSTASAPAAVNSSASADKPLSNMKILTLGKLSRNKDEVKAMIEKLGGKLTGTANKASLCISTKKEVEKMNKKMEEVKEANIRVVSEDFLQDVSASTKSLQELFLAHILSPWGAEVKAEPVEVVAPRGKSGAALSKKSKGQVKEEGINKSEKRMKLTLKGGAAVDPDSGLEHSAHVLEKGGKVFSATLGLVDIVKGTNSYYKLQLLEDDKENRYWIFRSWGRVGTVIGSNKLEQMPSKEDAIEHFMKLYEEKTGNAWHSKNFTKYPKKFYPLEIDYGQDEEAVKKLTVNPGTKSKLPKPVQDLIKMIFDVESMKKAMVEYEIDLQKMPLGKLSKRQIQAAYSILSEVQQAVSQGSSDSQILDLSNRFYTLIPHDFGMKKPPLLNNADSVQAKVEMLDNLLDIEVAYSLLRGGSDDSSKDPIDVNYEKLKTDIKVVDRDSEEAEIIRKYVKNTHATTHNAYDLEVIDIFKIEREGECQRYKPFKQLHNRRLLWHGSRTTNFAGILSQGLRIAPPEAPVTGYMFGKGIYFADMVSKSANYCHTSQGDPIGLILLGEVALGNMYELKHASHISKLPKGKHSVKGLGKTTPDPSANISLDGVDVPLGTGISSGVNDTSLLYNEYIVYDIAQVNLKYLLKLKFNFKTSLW

[4] = biological target: T2, Protein mono-ADP-ribosyltransferase PARP10 (Homo sapiens) (UniProt Q53GL7); settings: U2OS
T2 sequence (whole entry): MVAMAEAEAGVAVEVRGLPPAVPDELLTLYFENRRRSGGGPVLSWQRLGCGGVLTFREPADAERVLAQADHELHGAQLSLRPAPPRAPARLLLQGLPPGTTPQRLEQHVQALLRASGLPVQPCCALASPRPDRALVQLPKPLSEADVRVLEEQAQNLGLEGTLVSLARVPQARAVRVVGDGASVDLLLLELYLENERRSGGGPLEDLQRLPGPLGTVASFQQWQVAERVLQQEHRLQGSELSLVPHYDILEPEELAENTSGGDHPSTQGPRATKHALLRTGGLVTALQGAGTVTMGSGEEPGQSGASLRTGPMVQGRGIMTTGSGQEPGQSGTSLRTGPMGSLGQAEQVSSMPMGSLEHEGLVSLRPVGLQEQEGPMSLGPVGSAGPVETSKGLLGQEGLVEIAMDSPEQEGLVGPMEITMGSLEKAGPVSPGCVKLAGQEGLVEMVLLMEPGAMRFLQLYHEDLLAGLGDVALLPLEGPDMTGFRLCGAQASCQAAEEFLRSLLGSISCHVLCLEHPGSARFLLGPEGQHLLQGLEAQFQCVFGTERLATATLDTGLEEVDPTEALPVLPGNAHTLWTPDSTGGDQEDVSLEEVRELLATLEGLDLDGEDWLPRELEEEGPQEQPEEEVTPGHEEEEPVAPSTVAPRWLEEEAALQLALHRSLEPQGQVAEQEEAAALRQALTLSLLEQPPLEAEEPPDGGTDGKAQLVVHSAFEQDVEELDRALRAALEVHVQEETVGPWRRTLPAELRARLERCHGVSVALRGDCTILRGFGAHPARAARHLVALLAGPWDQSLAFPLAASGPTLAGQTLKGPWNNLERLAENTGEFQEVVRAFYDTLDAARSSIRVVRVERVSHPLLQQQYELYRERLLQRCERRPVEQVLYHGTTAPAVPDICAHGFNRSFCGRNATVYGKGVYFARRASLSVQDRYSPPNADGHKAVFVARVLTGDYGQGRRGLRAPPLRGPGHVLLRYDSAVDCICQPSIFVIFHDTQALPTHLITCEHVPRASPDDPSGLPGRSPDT
Description: Stabilization of ARTD10 in human U2OS cells assessed as increase in melting temperature at 10 uM by CESTA

Row | SMILES | ΔTm [1] [°C] | IC50 [2] [µM] | IC50 [3] [µM] | Tm [4] [°C]
1 | NC(=O)c1ccc(Oc2ccc(C(=O)O)cc2)cc1 | 1.2 | > 100 | > 100 | –
2 | COc1ccc(C(N)=O)cc1 | 0.15 | > 100 | 57 | –
3 | NC(=O)c1ccc(OCc2ccccc2F)cc1 | 0.76 | > 100 | > 100 | 54 to 56
4 | NC(=O)c1ccc(Oc2ccc(C=O)cc2)cc1 | 0.04 | > 100 | > 100 | 54 to 56
